Experimental data reported in patent US20250017964A1, “ENGINEERING OR INDUCING PDGF AND/OR PDGFR SIGNALING TO ENHANCE NK CELL THERAPY” (City of Hope, priority 2021, published 2025).
*1 amine or outer side, *2 acyl side, *3 side chain or, on linkers, in order; H or OH if unused. Where a SMILES comes first, the peptide text is derived from it. Bridges are numbered along the chain shown (N, C = ends). Roman numbers before positions name the chains, in order. [ ]: non-standard residue; d: D form. Actinocin(9to1) = Cc1c2oc3c(C)ccc(C(=O)[*:1])c3nc-2c(C(=O)[*:2])c(N)c1=O; NMeV = CN[C@H](C(=O)O)C(C)C; Sar = CNCC(=O)O

Legend:
[1] = system: IL-15-induced PDGFRβ expression; test: Inhibition assay: IL-15-induced PDGFRβ expression after inhibitor pretreatment, flow cytometry; type: cell-based, human; conditions: washed, IL-15 10 ng/ml 24 h; for inhibition of PDGFRβ expression: DMSO control
Procedure: FIGS. 2A-2I. […] (A-B) Primary NK cells were treated with IL-15 (10 ng/ml) for the indicated times. mRNA levels of PDGFRB at different time points (A) (n=3) or at 1 h (B) (n=10) were examined by qPCR. (C-D) Primary NK cells were pretreated with actinomycin D (ActD, 5., g/ml) (C) or cycloheximide (CHX, 20 μg/ml) (D) for 1 h, washed twice with RPMI-1640, and then treated with IL-15 (10 ng/ml) for 24 h. DMSO was used as a control. Expression levels of PDGFRβ were examined by flow cytometry (n=5). […] (E) Primary NK cells were pretreated with wortmannin (1 μM), afuresertib (10 μM), TPCA-1 (1 μM), rapamycin (10 μM), torin1 (10 μM), decernotinib (10 μM), C118-9 (10 μM), STAT5-IN-1 (10 μM), AZD6244 (10 μM), or CI-1040 (10 μM) for 1 h, washed twice with RPMI 1640, and then treated with IL-15 (10 ng/ml) for 24 h. DMSO was used as control. Data shown are % of inhibition (n=5). The mean value of the inhibitory rate is shown. […] (G-I) Binding of p65 to the PDGFRB promoter in IL-15-treated NK cells (G) or resting NK cells (H) as determined by ChIP-qPCR or PCR (I) (n=3). Data represent three independent experiments. Data shown are means SD. NS, not significant. *P<0.05, **P<0.01, ***P<0.001, and ****P<0.0001.
FIGS. 8A-8E. […] (A) Scheme for the three IL-15 signaling pathways and their inhibitors. (B) Representative dot plots of PDGFRβ expression in NK cells treated with specific inhibitors. (C) Binding sites for p65 in the promoter regions of PDGFRB and PDGF-D genes (predicted from http://jaspar.genereg.net). […] The cells were collected for an immunoblot using anti-phosphor (p)-p65, anti-p65, and anti-actin antibodies. The ratios of p-p65 to actin were calculated using ImageJ (n=3). Data shown represent the mean±SD. NS, not significant, **P<0.01, ****P<0.0001.
(§1) NK cells were cultured in RPMI 1640 with 10% heat-inactivated FBS (Gibco) at 37° C. in a 5% CO2 humidified incubator. For NK cell transduction, PDGFRB cDNA ORF clone (Cat: HG10514-G) was purchased from Sino Biological and cloned into pCDH-CMV-MCS-EF1-copGFP lentivirus vector (System Biosciences). To produce lentivirus, we transfected the lentiviral transfer vector DNA, together with psPAX2 packaging (Addgene) and pMD2.G envelope plasmid DNA (Addgene), into HEK293T cells; using a polyethyenimine (PEI) transfection protocol (Polysciences). Concentrated lentivirus was added to primary NK cells cultured in RPMI 1640 medium supplemented with 10% FCS and 10 jig/mL polybrene with 2,000×g centrifugation for 2 h. Cells were cultured for an additional 48 h. […] The cells were then collected for flow cytometry analysis. For the inhibition assay, NK cells were pretreated with the indicated inhibitors for 1 h, washed twice with RPMI 1640. and then treated with IL-15 for 24 h.
Cells were stained with the indicated cell-surface markers and/or fixed/permeabilized using a Fixation/Permeabilization Kit (eBioscience). For intracellular staining of IFN-γ and PDGF-D, 5 μg/ml Brefeldin A (BioLegend) was added for 4 h before cell harvest. Intracellular staining of Ki67 was performed by fixing and permeabilizing with the Foxp3/Transcription Factor Staining Kit (eBioscience). For CD107a staining, CD107a antibody was added into the culture for 4 h in the presence of Brefeldin A. Annexin V staining was performed using an FITC Annexin V Apoptosis Detection Kit according to the manufacturer's protocol (BD Biosciences). Flow cytometry analysis was performed on BD LSRFortessa X-20 (BD Biosciences). Data were analyzed using NovoExpress software (Agilent Technologies).

[2] = system: PDGFRβ expression in human NK cells; test: Cytokine-induced PDGFRβ expression in purified human NK cells, flow cytometry; type: cell-based; conditions: cytokine 10 ng/ml, 24 h; IL-15 effect dose- and time-dependent
Excerpt: Data shown are the percentages of PDGFRβ^+ NK cells among total NK cells (n=5). […] Bar=20 μm. […] Data represent three independent experiments. Data shown are means SD.
FIGS. 7A-7F. […] Data shown are representative histograms and mean fluorescence intensity (MFI) of PDGFRα. […] Expression levels of PDGFRβ were examined by flow cytometry (n=6). […] Data shown are the percentages of PDGFRβ^+ NK cells among total NK cells (n=5). […] Data shown are representative histograms with MFI of PDGFRβ expression. (F) Expression levels of PDGFRβ on NK cells from IL-15 transgenic (Tg) mice were determined by flow cytometry. Data shown are representative histograms. Data represent three independent experiments.
as §1
Cells were stained with the indicated cell-surface markers and/or fixed/permeabilized using a Fixation/Permeabilization Kit (eBioscience). For intracellular staining of IFN-γ and PDGF-D, 5 μg/ml Brefeldin A (BioLegend) was added for 4 h before cell harvest. Intracellular staining of Ki67 was performed by fixing and permeabilizing with the Foxp3/Transcription Factor Staining Kit (eBioscience).

[3] = inhibitor 10 μM pretreatment 1 h
[4] = inhibitor 1 μM pretreatment 1 h

Cn1cnc2c(F)c(Nc3ccc(Br)cc3Cl)c(C(=O)NOCCO)cc21 [AZD6244]
effect on IL-15-induced PDGFRβ expression [1, 3]: either little inhibition or even promoted

O=C(NOCC1CC1)c1ccc(F)c(F)c1Nc1ccc(I)cc1Cl [CI-1040]
effect on IL-15-induced PDGFRβ expression [1, 3]: either little inhibition or even promoted

O=C(N/N=C/c1coc2ccccc2c1=O)c1cccnc1 [STAT5-IN-1]
effect on IL-15-induced PDGFRβ expression [1, 3]: either little inhibition or even promoted

NC(=O)Nc1sc(-c2ccc(F)cc2)cc1C(N)=O [TPCA-1]
effect on IL-15-stimulated PDGFRβ expression [1, 4]: completely prevented

Cc1c2oc3c(C)ccc(C(=O)N[C@@H]4C(=O)N[C@H](C(C)C)C(=O)N5CCC[C@H]5C(=O)N(C)CC(=O)N(C)[C@@H](C(C)C)C(=O)O[C@@H]4C)c3nc-2c(C(=O)N[C@@H]2C(=O)N[C@H](C(C)C)C(=O)N3CCC[C@H]3C(=O)N(C)CC(=O)N(C)[C@@H](C(C)C)C(=O)O[C@@H]2C)c(N)c1=O [actinomycin D] (I: T[dV]P[Sar][NMeV] / II: T[dV]P[Sar][NMeV]; ester I:1-I:C, II:1-II:C; linker I:N-II:N via Actinocin(9to1))
effect on IL-15-induced PDGFRβ expression ([1]; ActD pretreatment 1 h): no longer induced PDGFRβ expression

Cn1ncc(Cl)c1-c1cc(C(=O)N[C@H](CN)Cc2cccc(F)c2)sc1Cl [afuresertib]
inhibition of PDGFRβ expression [1, 3]: ~70%

C[C@@H]1C[C@@H]([C@H](O)CC2CC(=O)NC(=O)C2)C(=O)[C@@H](C)C1 [cycloheximide]
effect on IL-15-induced PDGFRβ expression ([1]; CHX, 20 μg/ml pretreatment 1 h): completely inhibited

CC[C@@](C)(Nc1ccnc(-c2c[nH]c3ncccc23)n1)C(=O)NCC(F)(F)F [decemotinib, decernotinib]
effect on IL-15-induced PDGFRβ expression [1, 3]: approximately one third

CCC(=O)N1CCN(c2ccc(-n3c(=O)ccc4cnc5ccc(-c6cnc7ccccc7c6)cc5c43)cc2C(F)(F)F)CC1 [torin1]
effect on IL-15-induced PDGFRβ expression [1, 3]: dramatically and significantly blocked

COC[C@H]1OC(=O)c2coc3c2[C@@]1(C)C1=C(C3=O)[C@@H]2CCC(=O)[C@@]2(C)C[C@H]1OC(C)=O [wortmannin]
inhibition of PDGFRβ expression [1, 4]: ~70%

IL-18: recombinant human IL-18 (B001-5)
PDGFRβ expression [2]: ineffective
